Reference: patent publication US11179412B2, “Methods of treating conditions involving elevated inflammatory response” (University of Pittsburgh—Of the Commonwealth System of …, priority 2017, dated 2021)
Structures can show the parent of a compound that is named as a salt.

Each compound was assayed on STING activation (IFNβ release) in iBMDMs (assay: IFNβ release ELISA after STING ligand (or LPS) stimulation, iBMDMs). Conditions: 16 h, 10 µM.
Format: cell-based, mouse
How it was run: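 IFNβ released into the medium was quantified by ELISA (mouse or human kit) after iBMDM stimulation with the canonical STING agonist 3′3′-cGAMP or with LPS.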

| Compound | fold increase in IFN-β release [fold] |
| --- | --- |
| CCCCCCCCc1ccc(CCC(N)(CO)CO)cc1 [Fingolimod (FTY720) HCl, Fingolimod] | 0.77 |

Same assay, conditions: iBMDMs; 3′3′-cGAMP 10 μg/ml, 16 hours; compound 10 μM

| Compound | fold increase in IFN-β release [fold] |
| --- | --- |
| CCOC(=O)[C@H]1O[C@@H]1C(=O)N[C@@H](CC(C)C)C(=O)NCCC(C)C [Aloxistatin] | 0.31 |
| O=C1[C@H](Cc2ccc(O)cc2)N2C(=O)CCN(C(=O)NCc3ccccc3)[C@H]2CN1Cc1cccc2ccccc12 [ICG-001] | 0.10 |
| COc1cc(C(=O)NC2CCN(C)CC2)ccc1Nc1ncc2c(n1)N(C1CCCC1)CC(F)(F)C(=O)N2C [Ro3280] | 2.16 |
| COc1ccccc1-c1cc(Nc2cccc(CS(N)(=O)=O)c2)ncn1 [LDC000067] | 1.43 |
| CC(=O)OCC(=O)NCCCOc1cccc(CN2CCCCC2)c1 [Roxatidine Acetate HCl] | 3.16 |
| O[C@@H](COc1cccc2ncccc12)CN1CCN([C@@H]2c3ccccc3[C@@H]3[C@H](c4ccccc42)C3(F)F)CC1 [Zosuquidar (LY335979) 3HCl, Zosuquidar] | 4.10 |
| CC(=O)c1cc([N+](=O)[O-])c(Sc2ccc(F)cc2F)s1 [P22077] | 0.35 |
| CC(C)(C)c1nc(-c2cccc(NS(=O)(=O)c3c(F)cccc3F)c2F)c(-c2ccnc(N)n2)s1 [Dabrafenib (GSK2118436), Dabrafenib] | 0.86 |
| Cc1cc2c(cc1CC(=O)c1sccc1S(=O)(=O)Nc1onc(C)c1Cl)OCO2 [Sitaxentan sodium] | 1.16 |
| O=C(O)c1ccc(N2C(=O)/C(=C\c3ccc(-c4ccc([N+](=O)[O-])cc4)o3)C=C2c2ccccc2)cc1 [4E1 RCat] | 2.36 |
| O=C(NC(Cc1cc(=O)[nH]c2ccccc12)C(=O)O)c1ccc(Cl)cc1 (stereo not shown) [Rebamipide] | 2.54 |
| CO[C@H]1C[C@@H]2CC[C@@H](C)[C@@](O)(O2)C(=O)C(=O)N2CCCC[C@H]2C(=O)O[C@H]([C@H](C)C[C@@H]2CC[C@@H](OP(C)(C)=O)[C@H](OC)C2)CC(=O)[C@H](C)/C=C(\C)[C@@H](O)[C@@H](OC)C(=O)[C@H](C)C[C@H](C)/C=C/C=C/C=C/1C [Ridaforolimus (Deforolimus, MK-8669), Ridaforolimus] | 0.58 |
| O=C1NC(=O)/C(=C/c2cccc(C(F)(F)F)c2)S1 [SMI-4a] | 0.84 |
| Oc1ccc(Nc2nc(-c3ccc(Cl)cc3)cs2)cc1 [SKI II] | 0.49 |
| C[C@H]1COC2(CCN(c3nc(=O)c4cc(C(F)(F)F)cc([N+](=O)[O-])c4s3)CC2)O1 (racemic) [BTZ043 Racemate] | 0.69 |
| CC1=C(/C=C/C(C)=C/C=C/C(C)=C\C(=O)O)C(C)(C)CCC1 [Isotretinoin] | 0.10 |
| CNC(=O)c1ccccc1Nc1nc(Nc2ccc(N3CCOCC3)cc2OC)ncc1Cl [TAE226 (NVP-TAE226)] | 1.50 |
| CCOc1ccccc1-n1c(C(C)N2CCN(C(=O)COc3ccc(Cl)cc3)CC2)nc2ccccc2c1=O (stereo not shown) [Erastin] | 4.52 |
| CC(C)(F)C[C@H](N[C@@H](c1ccc(-c2ccc(S(C)(=O)=O)cc2)cc1)C(F)(F)F)C(=O)NC1(C#N)CC1 [Odanacatib (MK-0822), Odanacatib] | 0.90 |
| CN1C(=O)C(Cc2c[nH]c3ccccc23)NC1=S (stereo not shown) [Necrostatin-1] | 1.60 |
| Nc1ccc(C(=O)[O-])c(O)c1.[Na+] [Sodium 4-Aminosalicylate] | 0.74 |
| HO-3867 | 0.52 |
| OC(CNCC(O)C1CCc2cc(F)ccc2O1)C1CCc2cc(F)ccc2O1 (stereo not shown) [Nebivolol] | 0.75 |
| Cc1nnc(C(=O)NC(C)(C)c2nc(C(=O)NCc3ccc(F)cc3)c(O)c(=O)n2C)o1 [Raltegravir (MK-0518), Raltegravir] | 4.80 |

| Compound | fold increase in IFN-β release [fold] |
| --- | --- |
| CC(C)(C#N)c1cc(Cn2cncn2)cc(C(C)(C)C#N)c1 [Anastrozole] | 0.98 |
| COc1cc2c(cc1OC)[C@@H]1Cc3ccc(OC)c(OC)c3CN1CC2 [Rotundine] | 0.54 |
| CCCS(=O)(=O)Nc1ccc(F)c(C(=O)c2c[nH]c3ncc(-c4ccc(Cl)cc4)cc23)c1F [Vemurafenib (PLX4032, RG7204), Vemurafenib] | 0.59 |
| Cc1cc(OCc2nnc(SC3CCCC3)n2-c2cccnc2)ccc1-c1ccc(S(C)(=O)=O)cc1 [NMS-873] | 1.90 |
| VU 0364770 | 2.00 |
| N#CC1(c2ccc(NC(=O)c3cccnc3NCc3ccncc3)cc2)CCCC1 [Apatinib] | 0.26 |
| CC(=O)Nc1cccc2c1c(Sc1ccc(Cl)cc1)c(C)n2CC(=O)O [AZD1981] | 3.11 |
| C[C@H](NC(=O)[C@@H](O)c1cc(F)cc(F)c1)C(=O)N[C@@H]1C(=O)N(C)c2ccccc2-c2ccccc21 [LY411575] | 0.26 |
| O=C(CCCCCCC(=O)Nc1ccc([C@H]2O[C@@H](CSc3nc(-c4ccccc4)c(-c4ccccc4)o3)C[C@@H](c3ccc(CO)cc3)O2)cc1)NO [Tubacin] | 1.05 |
| CCOC(=O)CCNc1cc(N2CCc3ccccc3CC2)nc(-c2ccccn2)n1.Cl [GSK J4 HCl] | 0.40 |
| c1cc(-c2cnn3cc(-c4ccc(N5CCNCC5)cc4)cnc23)c2cccnc2c1 [LDN-212854] | 0.33 |
| CNC(=O)c1cc(Oc2ccc(NC(=O)Nc3ccc(Cl)c(C(F)(F)F)c3)cc2)ccn1 [Sorafenib] | 0.91 |
| O=C(/C=C\n1cnc(-c2cc(C(F)(F)F)cc(C(F)(F)F)c2)n1)N1CC(F)(F)C1 [KPT-276] | 0.54 |
| CCCc1nc2c(C)cc(-c3nc4ccccc4n3C)cc2n1Cc1ccc(-c2ccccc2C(=O)O)cc1 [Telmisartan] | 2.26 |
| C=CC(=O)Nc1cccc(Nc2nc(Nc3ccc(OCCOC)cc3)ncc2F)c1 [AVL-292] | 0.16 |
| COc1ccc(-n2nc(C(N)=O)c3c2C(=O)N(c2ccc(N4CCCCC4=O)cc2)CC3)cc1 [Apixaban] | 2.83 |
| C[C@@H](c1ncncc1F)[C@](O)(Cn1cncn1)c1ccc(F)cc1F [Voriconazole] | 2.35 |
| COc1ccc2c(c1)c(C1=C(c3c[nH]c4ccccc34)C(=O)NC1=O)cn2CCCN(C)C [Go 6983] | 0.26 |
| COc1cc(-n2c(=S)[nH]c3ccccc3c2=O)c(Cl)cc1Cl [Mdivi-1] | 2.10 |
| CN1CCC(CNc2ccc3ncc(-c4cccc(OC(F)(F)F)c4)n3n2)CC1 [SGI-1776 free base] | 0.65 |
| Cc1cc(C(C)(C)C)c(O)c(C)c1CC1=NCCN1 [Oxymetazoline HCl] | 1.16 |
| CCN1CCC[C@H]1CNC(=O)c1cc(S(N)(=O)=O)ccc1OC [Levosulpiride] | 1.91 |
| OCCn1cc(-c2cnc3nnn(Cc4ccc5ncccc5c4)c3n2)cn1 [PF-04217903] | 1.49 |
| O=C(Nc1ccccc1-c1cn2c(CN3CCNCC3)csc2n1)c1cnc2ccccc2n1 [SRT1720] | 0.76 |
